From US20240376123A1, “KRAS G12D INHIBITORS AND USES THEREOF” (SUZHOU ZANRONG PHARMA LIMITED, priority 2021, published 2024)

System: p-ERK in PNAC-1/HPAC cell
Assay: Phospho-ERK 1/2 assay (Table 1)
Format: cell-based
Conditions: Homo sapiens; PNAC-1/HPAC cell, 3 hours compound incubation; read-out: p-ERK IC50
Method: Allow PNAC-1/HPAC cell growth in a T75 flask in DMEM and 10% 1 fetal calf serum (FCS; Gibco), using standard tissue culture procedures until ˜80% confluency is achieved. Day 1, seed 6000 cells/well in 384 well plate and incubate at 37° C., 5% CO2. Add diluted compound by Echo 550, final DMSO is 0.5%, incubate cells at 37° C., 5% CO2 for 3 hours. Then, remove medium and fix cells with 3.7% formaldehyde in PBS (PFA) by Apricot. Wash with PBS once. Permeabilize cells with cold 100% methanol and repeat wash once with PBS once. Add Li-Cor blocking buffer to each well and incubate 1.5 hours at RT. Remove blocking buffer and add primary antibody mixture (rabbit anti pERK, mouse anti GAPDH). Incubate at 4° C. overnight. Day 2, wash with PBST (Tween-20 in PBS) with total 3 times and then add secondary antibody mixture (goat anti rabbit 800CW (1:800 dilution in the combined solution) and goat anti mouse 680RD (1:800 dilution in the combined solution)), incubate for 60 minutes at RT away from light. Repeat washing with PBST 3 times. After final wash, centrifuge plate up-side-down at 1000 rpm to remove wash solution completely from wells. Before plate scanning, clean the bottom plate surface and the Odyssey* Imager scanning bed (if applicable) with moist, lint-free tissue to avoid any obstructions during scanning. Scan plate with detection in both 700 and 800 nm channels.

Compound | IC50 [nM]
Fc1ccc2cccc(-c3nc4c5c(nc(OC[C@@]67CCCN6C[C@H](F)C7)nc5c3F)N3C[C@@H]5CC[C@@H](N5)C3CO4)c2c1Cl (stereo partly drawn) [Compound 11, (6R,9S)-2-(8-chloro-7-fluoronaphthalen-1-yl)-1-fluoro-12-(((2R,7aS)-2-fluorotetrahydro-1H-pyrrolizin-7a(5H)-yl)methoxy)-5a,6,7,8,9,10-hexahydro-5H-4-oxa-3,10a,11,13,14-pentaaza-6,9-methanonaphtho[1,8-ab]heptalene] | 53
Fc1c(-c2cccc3cccc(Cl)c23)nc2c3c(nc(OC[C@@]45CCCN4C[C@H](F)C5)nc13)N1C[C@@H]3CC[C@@H](N3)C1CO2 (stereo partly drawn) [Compound 12, (6R,9S)-2-(8-chloronaphthalen-1-yl)-1-fluoro-12-(((2R,7aS)-2-fluorotetrahydro-1H-pyrrolizin-7a(5H)-yl)methoxy)-5a,6,7,8,9,10-hexahydro-5H-4-oxa-3,10a,11,13,14-pentaaza-6,9-methanonaphtho[1,8-ab]heptalene] | 68
Cc1c(F)ccc2cccc(-c3nc4c5c(nc(OC[C@@]67CCCN6C[C@H](F)C7)nc5c3F)N3C[C@@H]5CC[C@@H](N5)C3CO4)c12 (stereo partly drawn) [Compound 13, (6R,9S)-1-fluoro-2-(7-fluoro-8-methylnaphthalen-1-yl)-12-(((2R,7aS)-2-fluorotetrahydro-1H-pyrrolizin-7a(5H)-yl)methoxy)-5a,6,7,8,9,10-hexahydro-5H-4-oxa-3,10a,11,13,14-pentaaza-6,9-methanonaphtho[1,8-ab]heptalene] | 237
Fc1ccc2cccc(-c3nc4c5c(nc(OC[C@@]67CCCN6C[C@H](F)C7)nc5c3F)N3C[C@@H]5CC[C@@H](N5)C3CO4)c2c1F (stereo partly drawn) [Compound 14, (6R,9S)-2-(7,8-difluoronaphthalen-1-yl)-1-fluoro-12-(((2R,7aS)-2-fluorotetrahydro-1H-pyrrolizin-7a(5H)-yl)methoxy)-5a,6,7,8,9,10-hexahydro-5H-4-oxa-3,10a,11,13,14-pentaaza-6,9-methanonaphtho[1,8-ab]heptalene] | 141
Fc1c(-c2cccc3cccc(F)c23)nc2c3c(nc(OC[C@@]45CCCN4C[C@H](F)C5)nc13)N1C[C@@H]3CC[C@@H](N3)C1CO2 (stereo partly drawn) [Compound 15, (6R,9S)-1-fluoro-2-(8-fluoronaphthalen-1-yl)-12-(((2R,7aS)-2-fluorotetrahydro-1H-pyrrolizin-7a(5H)-yl)methoxy)-5a,6,7,8,9,10-hexahydro-5H-4-oxa-3,10a,11,13,14-pentaaza-6,9-methanonaphtho[1,8-ab]heptalene] | 221
Fc1ccc2cccc(-c3nc4c5c(nc(OC[C@@]67CCCN6C[C@H](F)C7)nc5c3F)N3C[C@@H]5CC[C@@H](N5)C3CO4)c2c1 (stereo partly drawn) [Compound 16, (6R,9S)-1-fluoro-2-(7-fluoronaphthalen-1-yl)-12-(((2R,7aS)-2-fluorotetrahydro-1H-pyrrolizin-7a(5H)-yl)methoxy)-5a,6,7,8,9,10-hexahydro-5H-4-oxa-3,10a,11,13,14-pentaaza-6,9-methanonaphtho[1,8-ab]heptalene] | 355
COc1ccc2cccc(-c3nc4c5c(nc(OC[C@@]67CCCN6C[C@H](F)C7)nc5c3F)N3C[C@@H]5CC[C@@H](N5)C3CO4)c2c1 (stereo partly drawn) [Compound 17, (6R,9S)-1-fluoro-12-(((2R,7As)-2-fluorotetrahydro-1H-pyrrolizin-7a(5H)-yl)methoxy)-2-(7-methoxynaphthalen-1-yl)-5a,6,7,8,9,10-hexahydro-5H-4-oxa-3,10a,11,13,14-pentaaza-6,9-methanonaphtho[1,8-ab]heptalene] | 1000
Fc1cc2cccc(F)c2c(-c2nc3c4c(nc(OC[C@@]56CCCN5C[C@H](F)C6)nc4c2F)N2C[C@@H]4CC[C@@H](N4)C2CO3)n1 (stereo partly drawn) [Compound 18, (6R,9S)-2-(3,8-difluoroisoquinolin-1-yl)-1-fluoro-12-(((2R,7aS)-2-fluorotetrahydro-1H-pyrrolizin-7a(5H)-yl)methoxy)-5a,6,7,8,9,10-hexahydro-5H-4-oxa-3,10a,11,13,14-pentaaza-6,9-methanonaphtho[1,8-ab]heptalene] | 404
C#Cc1cccc2cccc(-c3nc4c5c(nc(OC[C@@]67CCCN6C[C@H](F)C7)nc5c3F)N3C[C@@H]5CC[C@@H](N5)C3CO4)c12 (stereo partly drawn) [Compound 19, (6R,9S)-2-(8-ethynylnaphthalen-1-yl)-1-fluoro-12-(((2R,7aS)-2-fluorotetrahydro-1H-pyrrolizin-7a(5H)-yl)methoxy)-5a,6,7,8,9,10-hexahydro-5H-4-oxa-3,10a,11,13,14-pentaaza-6,9-methanonaphtho[1,8-ab]heptalene] | 29
N#Cc1cccc2cccc(-c3nc4c5c(nc(OC[C@@]67CCCN6C[C@H](F)C7)nc5c3F)N3C[C@@H]5CC[C@@H](N5)C3CO4)c12 (stereo partly drawn) [Compound 20, 8-((6R,9S)-1-fluoro-12-(((2R,7aS)-2-fluorotetrahydro-1H-pyrrolizin-7a(5H)-yl)methoxy)-5a,6,7,8,9,10-hexahydro-5H-4-oxa-3,10a,11,13,14-pentaaza-6,9-methanonaphtho[1,8-ab]heptalen-2-yl)-1-naphthonitrile] | 735
Fc1cccc(-c2nc3c4c(nc(OC[C@@]56CCCN5C[C@H](F)C6)nc4c2F)N2C[C@@H]4CC[C@@H](N4)C2CO3)c1C1CC1 (stereo partly drawn) [Compound 21, (6R,9S)-2-(2-cyclopropyl-3-fluorophenyl)-1-fluoro-12-(((2R,7aS)-2-fluorotetrahydro-1H-pyrrolizin-7a(5H)-yl)methoxy)-5a,6,7,8,9,10-hexahydro-5H-4-oxa-3,10a,11,13,14-pentaaza-6,9-methanonaphtho[1,8-ab]heptalene] | 1230
N#Cc1c(N)sc2cccc(-c3nc4c5c(nc(OC[C@@]67CCCN6C[C@H](F)C7)nc5c3F)N3C[C@@H]5CC[C@@H](N5)C3CO4)c12 (stereo partly drawn) [Compound 22, 2-amino-4-((6R,9S)-1-fluoro-12-(((2R,7aS)-2-fluorotetrahydro-1H-pyrrolizin-7a(5H)-yl)methoxy)-5a,6,7,8,9,10-hexahydro-5H-4-oxa-3,10a,11,13,14-pentaaza-6,9-methanonaphtho[1,8-ab]heptalen-2-yl)benzo[b]thiophene-3-carbonitrile] | 493
Fc1c(-c2cccc(Cl)c2C2CC2)nc2c3c(nc(OC[C@@]45CCCN4C[C@H](F)C5)nc13)N1C[C@@H]3CC[C@@H](N3)C1CO2 (stereo partly drawn) [Compound 23, (6R,9S)-2-(3-chloro-2-cyclopropylphenyl)-1-fluoro-12-(((2R,7aS)-2-fluorotetrahydro-1H-pyrrolizin-7a(5H)-yl)methoxy)-5a,6,7,8,9,10-hexahydro-5H-4-oxa-3,10a,11,13,14-pentaaza-6,9-methanonaphtho[1,8-ab]heptalene] | 375
CC(=O)c1cccc2cc(O)cc(-c3nc4c5c(nc(OC[C@@]67CCCN6C[C@H](F)C7)nc5c3F)N3C[C@H]5CC[C@H](N5)[C@H]3CO4)c12 [Compound 26, 1-(8-((5aS,6S,9R)-1-fluoro-12-(((2R,7aS)-2-fluorotetrahydro-1H-pyrrolizin-7a(5H)-yl)methoxy)-5a,6,7,8,9,10-hexahydro-5H-4-oxa-3,10a,11,13,14-pentaaza-6,9-methanonaphtho[1,8-ab]heptalen-2-yl)-6-hydroxynaphthalen-1-yl) ethan-1-one] | 148
